What all share (test): inhibition of tumour cell growth, NCI panel, 48 h
In assay [1] the test system is MALME-3M melanoma.
In assay [2] the test system is M14 melanoma.
In assay [3] the test system is HCT-15 colon.
Assay [4] deals with HOP-92 NSCLC.
The subject of assay [5] is LOX IMVI melanoma.
In assay [6] the test system is SF-539 CNS.
Assay [7] concerns PC-3 prostate.
Assay [8] concerns HCT-116 colon.
The test system of assay [9] is IGROV1 ovarian.
Assay [10] has as its system RPMI-8226 leukemia.

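How tested: cells in 96-well plates exposed to compound for 48 hours at five concentrations. GI50: concentration for 50% inhibition of growth. TGI marks complete inhibition of growth.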

Our source for the GI50 and TGI values is PubChem BioAssay (NCI).

On to `COc1ccc(-c2nnc(COc3ccc(C(=O)/C=C/c4ccco4)cc3)o2)cc1`, for which the GI50 in assay [1] was 2.82 µM; in assay [2], 4.03 µM; in [3], 1.8 µM; in [4], 2.9 µM; in [5], 1.71 µM; in [6], 1.8 µM. Further, the GI50 in assay [7] was 3.33 µM; in assay [8], 1.82 µM; in assay [9] it was 2.08 µM; in assay [10], 2.13 µM. Moreover, the TGI in assay [1] worked out at 7.43 µM; in [2], 14.6 µM; in assay [3], 4.25 µM; in [4], 16.9 µM; in assay [5] it was 3.18 µM; in assay [6] it was 3.63 µM. Further, the TGI in assay [7] turned out to be 11.8 µM; in [8], 3.36 µM; in assay [9], 4.38 µM; in [10] it was 5.94 µM.
Turning to `OC(c1nc2ccccc2[nH]1)C(O)C(O)C(O)c1nc2ccccc2[nH]1` (stereo not given), the TGI in assay [1], in assay [2], in assay [3], in assay [4], in assay [5] and in assay [6] was over 100 µM in each case. Besides, the TGI in assay [7], in assay [8], in [9] and in assay [10] was over 100 µM each time.
`CC(C)(C)OC(=O)N[C@H]1CC2(C=C(Cl)C(=O)C(Cl)=C2)OC1=O`: the TGI worked out at 25.9 µM in [1]; 33.7 µM in [2]; 34.9 µM in assay [3]; 31.7 µM in assay [4]; 34.5 µM in assay [5]; 45.1 µM in assay [6]. For the same molecule, the TGI was found to be 32.1 µM in assay [7], 28 µM in [8], 36 µM in assay [9] and 19.8 µM in assay [10].
On to `Cc1cccc2c1CC1(C2)Cc2c(C)cccc2C1=O` (stereo not given), for which the TGI in assay [1] is 49.7 µM; in assay [2], 77.7 µM; in assay [3], over 100 µM; in [4], 41.9 µM; in [5] it was 38.7 µM; in assay [6], 57.1 µM. For the same molecule, the TGI in assay [7] was over 100 µM; in [8], 35.7 µM; in [9], over 100 µM; in assay [10], 43 µM.
As to `C[C@@H]1CCC2[C@@H](C)[C@@H](OCC(CO[C@H]3OC4O[C@@]5(C)CC[C@H]6[C@H](C)CCC([C@H]3C)[C@@]46OO5)OC(=O)CCC(=O)O)OC3O[C@@]4(C)CC[C@@H]1[C@]32OO4` (stereo not given in full), the GI50 in assay [1] is under 0.01 µM; in assay [2], 4.05 µM; in assay [3] it was under 0.01 µM; in [4], 0.097 µM; in [5], under 0.01 µM; in assay [6], 2.26 µM. In addition, the GI50 in [7] is under 0.01 µM; in assay [8], under 0.01 µM; in assay [9] it was 12.6 µM; in [10], under 0.01 µM. In addition, the TGI is 12.4 µM in [1]; 26.9 µM in [2]; 12.8 µM in [3]; 3.26 µM in assay [4]; over 100 µM in [5]; 28.8 µM in assay [6]. In addition, the TGI in assay [7] was 14.7 µM; in assay [8] it was 14.6 µM; in assay [9], over 69 µM; in assay [10], 16.5 µM.
Take `O=C1NCC2(CCN(CCCC3(c4ccc(F)cc4)OCCO3)CC2)N1c1ccccc1`: the TGI in assay [1], in assay [2], in [3], in assay [4], in [5] and in assay [6] was over 100 µM in each case. Besides, the TGI in [7], in assay [8], in assay [9] and in assay [10] was over 100 µM each time.
For the molecule `CC(C)C(C)/C=C\C(C)C1CCC2C3=CC=C4CC(O)CCC4(C)C3CCC21C` (stereo not given), the TGI in [1] is over 50.6 µM; in assay [2], over 67.7 µM; in [3] it was over 71.3 µM; in assay [4], 70.2 µM; in assay [5], over 57.2 µM; in assay [6], over 64 µM. In addition, the TGI was over 100 µM in [7], over 57.2 µM in assay [8], over 54.3 µM in [9] and over 100 µM in [10].
`C=C1NC(=O)C(C(C)CC)NC(=O)C2CSCC(NC(=O)CCC(=O)O)C(=O)NC(Cc3ccccc3)C(=O)NC(C)C(=O)NC(CC(C)CC)C(=O)NC(C(=O)NC(Cc3ccccc3)C(=O)N3CCCC3C(=O)N2)C(C)OC(=O)C(CO)NC(=O)C(C(O)COC)N(C)C(=O)C(C(C)C)NC(=O)C(CC(C)CC)NC1=O` (stereo not given): the GI50 was 0.0326 µM in assay [1]; 0.00878 µM in assay [2]; 0.0183 µM in assay [3]; 0.0668 µM in assay [4]; 0.0304 µM in assay [5]; 0.00868 µM in assay [6]. Moreover, the GI50 in [7] was 0.0265 µM; in assay [8], 0.0137 µM; in [9], 0.112 µM; in assay [10], 0.0217 µM. In addition, the TGI is over 6 µM in assay [1]; 0.0391 µM in [2]; over 6 µM in assay [3]; over 4.93 µM in [4]; over 6 µM in [5]; 0.279 µM in assay [6]. The TGI in assay [7], in assay [8], in assay [9] and in assay [10] was over 6 µM in each case.
On to `COc1cc2c3c(n(C)c(=O)c2cc1OC)-c1cc2c(cc1/C3=C\CCN)OCO2`, for which the GI50 in [1] was 0.239 µM; in assay [2], 0.22 µM; in assay [3], 0.679 µM; in assay [4] it was 1.32 µM; in [5], under 0.01 µM; in assay [6] it was 0.215 µM. Also, the GI50 is 0.324 µM in [7], under 0.024 µM in assay [8], 0.882 µM in [9] and 0.061 µM in assay [10]. Besides, the TGI in assay [1] amounted to 2.07 µM; in [2], 4.82 µM; in assay [3] it was 12.8 µM; in assay [4], 26.5 µM; in assay [5] it was 0.194 µM; in assay [6], 3.74 µM. Moreover, the TGI in [7] was 2.94 µM; in assay [8], 0.348 µM; in assay [9] it was over 53.6 µM; in assay [10], 0.975 µM.
